Results as given in article PMC7730961, “Discovery of Novel Dual Extracellular Regulated Protein Kinases (ERK) and Phosphoinositide 3-Kinase (PI3K) Inhibitors as a Promising Strategy for Cancer Therapy” (Molecules, 2020).

Key:
HCT116 = assay: Anti-proliferation assay (MTT, 72 h), HCT116; assay type: cell-based; conditions: Homo sapiens, HCT-116, HCT116 cells
Experimental: (§1) Human cancer cell lines HCT116 and HEC1B were cultured in media with 10% FBS (GIBCO, Invitrogen Corporation, NY, USA) at 37 °C in a 5% (v/v) CO2 humidified incubator. The logarithmic growth phase cells were seeded in a 96-well plate with a density of 1 × 10^5 cells/mL, cultured at 37 °C, 5% CO2. Until the cells were 90% confluent, the medium containing compound was added to incubate for 72 h, and then the cell viability was tested by MTT analysis. Taking the drug concentration as the abscissa and the percentage of proliferation inhibitory activity corresponding to each concentration as the ordinate, using Graphpad Prism 5 to do nonlinear regression, the IC50 value of each compound was calculated.

Solubility = assay type: physicochemical; conditions: relative to parent after introducing a hydrophilic group at the pyrazole NH
ERK 2 = ERK 2 (Homo sapiens, UniProt P28482); assay: Enzymatic inhibition assay (ADP-Glo Plus luminescence kinase assay), ERK2; assay type: biochemical; conditions: 100 nM compound
Sequence of ERK 2 (P28482 whole entry): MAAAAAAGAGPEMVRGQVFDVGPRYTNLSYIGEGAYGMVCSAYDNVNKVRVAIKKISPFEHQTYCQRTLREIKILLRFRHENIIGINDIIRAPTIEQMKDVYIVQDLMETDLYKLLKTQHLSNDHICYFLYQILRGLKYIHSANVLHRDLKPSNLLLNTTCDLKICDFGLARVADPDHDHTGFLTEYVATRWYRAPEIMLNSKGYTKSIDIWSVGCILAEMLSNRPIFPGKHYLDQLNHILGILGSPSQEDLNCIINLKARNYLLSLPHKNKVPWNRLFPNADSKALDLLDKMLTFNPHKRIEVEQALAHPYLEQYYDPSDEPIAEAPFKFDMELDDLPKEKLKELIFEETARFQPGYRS
Experimental: (§2) All compounds were diluted in 10% DMSO and tested in 10-dose with 3-fold serial dilution starting at a concentration of 1 μM. Of the dilution, 5 µL was added to a 50 µL reaction so that the final concentration of DMSO is 1% in all of reactions. After all of the reaction mixtures were conducted at 30 °C for 40 min, the assay was performed using ADP-Glo Plus luminescence kinase assay kit. The luminescence signal and the intensity of the luminescence signal value were detected using a multi-well spectrophotometer (the MD-SpectraMax M5 multifunctional microplate reader). It was directly proportional to the inhibition of enzyme activity.

PI3Kα = PI3Kα (Homo sapiens, UniProt P42336); assay: Enzymatic inhibition assay (ADP-Glo Plus luminescence kinase assay), PI3Kα; assay type: biochemical; conditions: 100 nM compound
Sequence of PI3Kα (P42336 whole entry): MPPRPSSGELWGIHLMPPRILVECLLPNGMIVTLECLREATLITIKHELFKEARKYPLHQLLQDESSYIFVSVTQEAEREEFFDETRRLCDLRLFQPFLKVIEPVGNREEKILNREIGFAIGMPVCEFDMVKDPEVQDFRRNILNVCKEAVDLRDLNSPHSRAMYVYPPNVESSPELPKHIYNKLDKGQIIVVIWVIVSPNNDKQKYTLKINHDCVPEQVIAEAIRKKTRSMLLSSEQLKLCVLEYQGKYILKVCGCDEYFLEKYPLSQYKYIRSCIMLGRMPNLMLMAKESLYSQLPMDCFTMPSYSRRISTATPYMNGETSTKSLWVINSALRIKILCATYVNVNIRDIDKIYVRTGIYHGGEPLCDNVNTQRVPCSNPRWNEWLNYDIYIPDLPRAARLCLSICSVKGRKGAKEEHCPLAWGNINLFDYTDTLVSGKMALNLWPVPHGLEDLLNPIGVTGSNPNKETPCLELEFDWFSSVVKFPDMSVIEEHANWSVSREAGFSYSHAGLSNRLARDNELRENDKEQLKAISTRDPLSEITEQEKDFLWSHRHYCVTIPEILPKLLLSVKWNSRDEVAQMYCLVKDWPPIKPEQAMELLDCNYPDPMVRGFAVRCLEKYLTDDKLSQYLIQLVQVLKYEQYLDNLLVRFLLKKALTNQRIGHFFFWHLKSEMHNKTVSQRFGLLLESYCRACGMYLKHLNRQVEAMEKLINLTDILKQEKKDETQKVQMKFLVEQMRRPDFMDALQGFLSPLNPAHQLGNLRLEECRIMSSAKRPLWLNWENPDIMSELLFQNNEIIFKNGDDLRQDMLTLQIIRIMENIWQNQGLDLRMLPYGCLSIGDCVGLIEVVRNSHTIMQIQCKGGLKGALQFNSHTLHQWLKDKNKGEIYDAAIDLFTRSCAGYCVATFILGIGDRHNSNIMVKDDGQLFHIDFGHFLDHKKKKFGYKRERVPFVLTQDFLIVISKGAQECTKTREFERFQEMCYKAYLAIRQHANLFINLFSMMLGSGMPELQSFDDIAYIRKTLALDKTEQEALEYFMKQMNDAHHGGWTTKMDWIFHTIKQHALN
Sequence of PI3Kα (P27986 whole entry partner): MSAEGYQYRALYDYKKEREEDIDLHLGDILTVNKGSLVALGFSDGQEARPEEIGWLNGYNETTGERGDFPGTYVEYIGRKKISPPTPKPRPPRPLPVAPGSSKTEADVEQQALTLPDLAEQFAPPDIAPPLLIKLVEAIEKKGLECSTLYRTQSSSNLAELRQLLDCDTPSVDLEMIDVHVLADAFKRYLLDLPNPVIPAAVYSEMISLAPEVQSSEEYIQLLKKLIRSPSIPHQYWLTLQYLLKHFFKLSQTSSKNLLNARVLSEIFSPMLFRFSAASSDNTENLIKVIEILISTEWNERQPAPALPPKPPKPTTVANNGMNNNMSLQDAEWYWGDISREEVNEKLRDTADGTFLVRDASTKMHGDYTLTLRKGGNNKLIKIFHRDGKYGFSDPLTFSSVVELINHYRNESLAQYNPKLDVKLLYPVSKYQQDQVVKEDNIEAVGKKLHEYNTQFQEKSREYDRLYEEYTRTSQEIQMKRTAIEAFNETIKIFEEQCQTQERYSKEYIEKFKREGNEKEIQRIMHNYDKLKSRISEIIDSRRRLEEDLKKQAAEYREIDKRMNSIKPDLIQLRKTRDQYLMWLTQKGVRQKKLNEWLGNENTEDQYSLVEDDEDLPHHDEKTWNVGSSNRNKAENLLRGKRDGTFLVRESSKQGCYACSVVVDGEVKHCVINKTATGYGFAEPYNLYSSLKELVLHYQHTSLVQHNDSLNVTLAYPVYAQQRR
Experimental: as §2, with “The 50 µL reaction mixture contains 40 mM Tris-HCl, pH 7.4, 10 µM ATP, 10 mM MgCl2, 0.1 mg/mL BSA, 1 mM DTT, 0.2 ug/mL ERK 2, ERK 1, PI3Kα, PI3Kβ, PI3Kγ or PI3Kδ and 100 uM lipid substrate. All” for “All”, “activity. The experimental results were converted into active percentages, a dose-response curve is drawn, and the IC50 value of inhibition was calculated using […] PRISM 5 nonlinear regression.” for “activity.”

HEC1B = assay: Anti-proliferation assay (MTT, 72 h), HEC1B; assay type: cell-based; conditions: Homo sapiens, HEC-1B, HEC1B cells
Experimental: as §1

IC50 (HCT116): 1.76 µM
solubility (Solubility): ameliorated
inhibition at 0.1 µM (ERK 2): 21.4%
inhibition at 0.1 µM (PI3Kα): 63.8%
SMILES: O=C(Nc1ncc2ncc(-c3cnn(CCN4CCOCC4)c3)cc2n1)NC1CCCC1 [32l, 1-Cyclopentyl-3-(7-(1-(2-morpholinoethyl)-1H-pyrazol-4-yl)pyrido[3,2-d]pyrimidin-2-yl)urea]
IC50 (HEC1B): 3.63 µM
